The text below walks through data of BindingDB's records for doi:10.1002/cbic.201300197 (Nankai University, 2013).

The target in assay [1] is Alpha-glucosidase MAL12 (Saccharomyces cerevisiae (strain ATCC 204508 / S288c), UniProt P53341). Put plainly: Inhibition Assay Against Commercial Glycosidases. The following applies: 37 °C. The protocol:
(§1) In a 96-well plates, 10µL of commercial enzyme solutions without (control) or with 20µL of inhibitor were incubated at 37°C for 5 min. After addition of 20µL of substrate solution, incubations were prolonged for different time periods: 10 min for β-glucosidase (almond), 5 min for α-glucosidase (saccharomyces cerevisiae) and 8 min for β-galactosidase (bovine liver) and α-galactosidase (green coffee beans) and stopped by addition of 150µL of glycine/NaOH buffer (100mM, pH 10.6). The amount of 4-MU formed was determined at 355nm (excitation) and 460nm (emission). For β-glucosidase (almond), the activity was determined with 4-MU-β-D-Glu (1mM) in sodium acetate buffer (100 mM, pH 5.2). For α-glucosidase (saccharomyces cerevisiae), the activity was determined with4-methylumbelliferyl-α-D-glucopyranoside (4-MU-α-D-Glu, 1 mM) in sodium phosphate buffer (100 mM, pH 7.2). For β-galactosidase (bovine liver), the activity was determined with 4-me

Assay [2] has as its target Alpha-galactosidase (Coffea arabica, UniProt Q42656). Put plainly: Inhibition Assay Against Commercial Glycosidases. The settings on record: 37 °C. The protocol:
as §1

Assay [3] concerns the target T1, Beta-galactosidase (Bos taurus, UniProt Q58D55).
T1 sequence (Q58D55 whole entry): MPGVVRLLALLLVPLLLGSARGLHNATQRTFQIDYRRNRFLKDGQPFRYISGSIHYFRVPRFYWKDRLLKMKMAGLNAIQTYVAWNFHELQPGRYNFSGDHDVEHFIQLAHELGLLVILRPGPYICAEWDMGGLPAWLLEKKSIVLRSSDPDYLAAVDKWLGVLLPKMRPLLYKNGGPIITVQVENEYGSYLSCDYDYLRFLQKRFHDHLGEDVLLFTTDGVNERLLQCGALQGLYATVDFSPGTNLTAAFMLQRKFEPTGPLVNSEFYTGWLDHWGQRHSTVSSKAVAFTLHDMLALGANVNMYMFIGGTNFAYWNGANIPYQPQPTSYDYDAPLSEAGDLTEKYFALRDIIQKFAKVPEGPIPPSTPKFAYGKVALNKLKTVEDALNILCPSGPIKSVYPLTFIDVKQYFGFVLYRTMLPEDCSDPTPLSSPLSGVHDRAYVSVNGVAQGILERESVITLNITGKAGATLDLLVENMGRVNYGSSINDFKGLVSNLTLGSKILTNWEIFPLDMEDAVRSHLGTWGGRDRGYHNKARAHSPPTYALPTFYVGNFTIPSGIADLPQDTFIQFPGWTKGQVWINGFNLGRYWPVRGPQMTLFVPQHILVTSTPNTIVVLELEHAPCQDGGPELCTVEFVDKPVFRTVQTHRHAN
Put plainly: Inhibition Assay Against Commercial Glycosidases. The following applies: 37 °C. On the procedure: as §1

In assay [4] the target is T2, Prunasin hydrolase (Prunus dulcis, UniProt H9ZGE1).
T2 sequence (H9ZGE1 whole entry): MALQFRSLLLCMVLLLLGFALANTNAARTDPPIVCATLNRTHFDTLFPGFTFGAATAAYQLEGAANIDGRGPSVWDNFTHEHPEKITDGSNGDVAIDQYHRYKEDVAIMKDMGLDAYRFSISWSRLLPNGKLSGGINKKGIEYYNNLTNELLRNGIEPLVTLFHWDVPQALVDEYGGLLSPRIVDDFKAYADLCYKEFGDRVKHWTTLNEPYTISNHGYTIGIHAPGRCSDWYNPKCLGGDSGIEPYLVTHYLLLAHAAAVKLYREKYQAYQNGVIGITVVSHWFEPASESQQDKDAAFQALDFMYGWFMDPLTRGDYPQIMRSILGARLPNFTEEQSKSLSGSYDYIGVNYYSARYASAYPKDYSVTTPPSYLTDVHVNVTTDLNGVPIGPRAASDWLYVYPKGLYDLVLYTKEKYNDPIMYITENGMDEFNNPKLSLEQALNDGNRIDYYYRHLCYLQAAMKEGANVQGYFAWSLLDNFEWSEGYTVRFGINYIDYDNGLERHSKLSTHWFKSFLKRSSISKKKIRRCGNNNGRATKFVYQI
Put plainly: Inhibition Assay Against Commercial Glycosidases. The settings on record: 37 °C. On the procedure: as §1

The target of assay [5] is T3, Lysosomal acid glucosylceramidase (Homo sapiens, UniProt P04062).
T3 sequence (P04062 whole entry): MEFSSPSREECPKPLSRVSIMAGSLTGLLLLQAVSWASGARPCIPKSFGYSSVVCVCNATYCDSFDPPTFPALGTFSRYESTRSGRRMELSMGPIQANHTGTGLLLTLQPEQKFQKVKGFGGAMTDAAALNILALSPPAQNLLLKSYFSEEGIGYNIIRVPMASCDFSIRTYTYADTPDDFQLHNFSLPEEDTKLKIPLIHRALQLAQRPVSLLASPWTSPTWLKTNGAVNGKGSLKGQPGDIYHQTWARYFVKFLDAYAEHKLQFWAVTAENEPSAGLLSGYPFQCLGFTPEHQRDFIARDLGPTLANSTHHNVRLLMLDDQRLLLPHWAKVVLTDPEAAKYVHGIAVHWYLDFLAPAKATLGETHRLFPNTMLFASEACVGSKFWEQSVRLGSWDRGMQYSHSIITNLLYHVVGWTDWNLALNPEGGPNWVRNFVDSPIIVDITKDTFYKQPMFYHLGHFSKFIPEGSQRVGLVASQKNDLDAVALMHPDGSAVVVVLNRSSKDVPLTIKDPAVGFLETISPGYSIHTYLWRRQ
Put plainly: GCase Ki Assay. The settings on record: pH 5.2.

In assay [6] the target is T3, Lysosomal acid glucosylceramidase. Put plainly: GCase IC50 Assay.

Chain of Alpha-glucosidase MAL12 (P53341 whole entry): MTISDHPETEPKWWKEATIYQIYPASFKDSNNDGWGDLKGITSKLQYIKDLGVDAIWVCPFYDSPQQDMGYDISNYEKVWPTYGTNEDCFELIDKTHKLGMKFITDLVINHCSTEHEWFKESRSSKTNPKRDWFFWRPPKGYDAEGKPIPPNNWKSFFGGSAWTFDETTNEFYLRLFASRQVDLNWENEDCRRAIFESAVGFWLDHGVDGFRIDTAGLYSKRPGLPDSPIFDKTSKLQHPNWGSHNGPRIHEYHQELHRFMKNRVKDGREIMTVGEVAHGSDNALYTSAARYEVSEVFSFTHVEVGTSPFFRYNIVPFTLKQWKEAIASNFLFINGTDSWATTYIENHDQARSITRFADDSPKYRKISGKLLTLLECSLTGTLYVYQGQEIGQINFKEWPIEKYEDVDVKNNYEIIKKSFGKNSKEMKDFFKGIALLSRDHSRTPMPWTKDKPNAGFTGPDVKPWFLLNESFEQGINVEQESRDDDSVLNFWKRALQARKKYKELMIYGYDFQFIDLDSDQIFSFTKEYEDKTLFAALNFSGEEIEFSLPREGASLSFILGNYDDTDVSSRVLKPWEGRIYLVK
Chain of Alpha-galactosidase (Q42656 whole entry): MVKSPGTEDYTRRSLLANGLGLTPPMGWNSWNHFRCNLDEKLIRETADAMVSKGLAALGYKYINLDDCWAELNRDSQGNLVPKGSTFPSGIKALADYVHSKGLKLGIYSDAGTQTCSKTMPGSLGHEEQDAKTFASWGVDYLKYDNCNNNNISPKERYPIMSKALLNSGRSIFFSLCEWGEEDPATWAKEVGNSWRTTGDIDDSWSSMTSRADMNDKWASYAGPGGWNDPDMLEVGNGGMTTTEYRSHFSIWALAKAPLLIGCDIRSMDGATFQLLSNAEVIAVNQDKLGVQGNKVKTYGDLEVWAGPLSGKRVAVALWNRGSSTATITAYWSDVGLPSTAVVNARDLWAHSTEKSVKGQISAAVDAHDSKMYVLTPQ

Turning to `CC(C)(CCCc1cn2c(n1)C(O)C(O)C(O)C2CO)C(=O)Nc1ccccc1` (centres undefined) [2,2-dimethyl-N-phenyl-5-[6,7,8-trihydroxy-5-(hydroxymethyl)-5H,6H,7H,8H-imidazo[1,2-a]pyridin-2-yl]pentanamide (Compound 11)], the concentration for half-maximal inhibition (IC50) (commonly the concentration needed to halve the response being measured) in assay [1] is 12800 nM; in assay [2] it was 4710 nM; in assay [3], 7830 nM; in assay [4] it was 910 nM; in assay [6] (pH 5.2) it was 12 nM; in assay [6] (pH 7) it was 11.5 nM. Moreover, in assay [5], the affinity corresponds to a Ki of 18.9 nM.

Turning to `CCCCCCCCc1cn2c(n1)C(O)C(O)C(O)C2CO` (centres undefined) [5-(hydroxymethyl)-2-octyl-5H,6H,7H,8H-imidazo[1,2-a]pyridine-6,7,8-triol (Compound 4)], the half-maximal inhibitory concentration (IC50) in assay [1] came to 970 nM; in assay [2], 12500 nM; in assay [3], 37 nM; in assay [4], 117 nM; in assay [6] (pH 5.2) it was 8.39 nM; in assay [6] (pH 7), 5.05 nM. For the same molecule, the Ki – broadly, the dissociation constant of the complex between target and ligand, obtained from inhibition or displacement – in assay [5] stood at 5.38 nM.

As for `OCC1C(O)C(O)C(O)c2nc(CCCc3ccc(C4CCCCC4)cc3)cn21` (centres undefined) [2-[3-(4-cyclohexylphenyl)propyl]-5-(hydroxymethyl)-5H,6H,7H,8H-imidazo[1,2-a]pyridine-6,7,8-triol (Compound 8)], the IC50 in assay [1] amounted to 52 nM; in assay [2] it was 11400 nM; in assay [3], 1 nM; in assay [4], 4 nM; in assay [6] (pH 5.2), 8.42 nM; in assay [6] (pH 7), 7.8 nM. In assay [5], this molecule came in with an inhibition constant Ki of 1.93 nM.

With `Cc1ccc(CCCc2cn3c(n2)C(O)C(O)C(O)C3CO)cc1` (centres undefined) [5-(hydroxymethyl)-2-[3-(4-methylphenyl)propyl]-5H,6H,7H,8H-imidazo[1,2-a]pyridine-6,7,8-triol (Compound 5)], the IC50 in assay [1] was found to be 280 nM; in assay [2] it was 4480 nM; in assay [3] it was 100 nM; in assay [4], 42 nM; in assay [6] (pH 5.2), 5.44 nM; in assay [6] (pH 7), 4.73 nM. In assay [5], affinity was put at a Ki of 1.46 nM.

Take `OCC1C(O)C(O)C(O)c2nc(CCCc3ccc(F)cc3)cn21` (centres undefined) [2-[3-(4-fluorophenyl)propyl]-5-(hydroxymethyl)-5H,6H,7H,8H-imidazo[1,2-a]pyridine-6,7,8-triol (Compound 9)]: the IC50 in assay [1] turned out to be 730 nM; in assay [2] it was 3750 nM; in assay [3], 230 nM; in assay [4], 31 nM; in assay [6] (pH 5.2) it was 6.23 nM; in assay [6] (pH 7), 4.75 nM. Moreover, the Ki in assay [5] worked out at 3.48 nM.

On to `COc1ccc(CCCc2cn3c(n2)C(O)C(O)C(O)C3CO)cc1` (centres undefined) [5-(hydroxymethyl)-2-[3-(4-methoxyphenyl)propyl]-5H,6H,7H,8H-imidazo[1,2-a]pyridine-6,7,8-triol (Compound 6)], for which the 50% inhibitory concentration (IC50) came out at 300 nM in assay [1]; 4900 nM in assay [2]; 92 nM in assay [3]; 78 nM in assay [4]; 2.97 nM in assay [6] (pH 5.2); 3.62 nM in assay [6] (pH 7). Also, the affinity in assay [5] corresponds to a Ki of 1.17 nM.

With `CCCCCCCCCN1C[C@H](O)[C@@H](O)[C@H](O)[C@H]1CO`, the values for the concentration for half-maximal inhibition (IC50) in assay [1], in assay [2] and in assay [4] were greater than 100000 nM, 9490 nM and 95900 nM, respectively.

On to `O=C(CCCc1cn2c(n1)C(O)C(O)C(O)C2CO)Nc1ccccc1` (centres undefined) [N-phenyl-4-[6,7,8-trihydroxy-5-(hydroxymethyl)-5H,6H,7H,8H-imidazo[1,2-a]pyridin-2-yl]butanamide (Compound 10)], for which the half-maximal inhibitory concentration (IC50) in assay [1] worked out at 1050 nM; in assay [2] it was 1480 nM; in assay [3], 11800 nM; in assay [4] it was 140 nM; in assay [6] (pH 5.2) it was 6.96 nM; in assay [6] (pH 7), 7.67 nM. The molecule also gave a Ki in assay [5] of 4.18 nM.

For `CC(C)(C)CCc1cn2c(n1)C(O)C(O)C(O)C2CO` (centres undefined) [2-(3,3-dimethylbutyl)-5-(hydroxymethyl)-5H,6H,7H,8H-imidazo[1,2-a]pyridine-6,7,8-triol (Compound 3)], the 50% inhibitory concentration (IC50) in assay [1] was 3420 nM; in assay [2] it was 12800 nM; in assay [3] it was 350 nM; in assay [4], 79 nM; in assay [6] (pH 5.2) it was 5.34 nM; in assay [6] (pH 7) it was 4.26 nM. The Ki in assay [5] is 5.34 nM.

Consider `OCC1C(O)C(O)C(O)c2nc(CCCc3ccc(-c4ccccc4)cc3)cn21` (centres undefined) [5-(hydroxymethyl)-2-[3-(4-phenylphenyl)propyl]-5H,6H,7H,8H-imidazo[1,2-a]pyridine-6,7,8-triol (Compound 7)], for which the half-inhibitory concentration (IC50) in assay [1] stood at 6 nM; in assay [2], 1660 nM; in assay [4] it was 42 nM; in assay [6] (pH 5.2) it was 5.27 nM; in assay [6] (pH 7), 5.11 nM. This molecule also registered an inhibition constant Ki in assay [5] of 3.62 nM.

For `OCC1C(O)C(O)C(O)c2nccn21` (centres undefined) [5-(hydroxymethyl)-5H,6H,7H,8H-imidazo[1,2-a]pyridine-6,7,8-triol (Compound 1)], the IC50 in assay [1] came to 98500 nM; in assay [2] it was 7290 nM; in assay [3], 230 nM; in assay [4], 220 nM; in assay [6] (pH 5.2), 91.6 nM; in assay [6] (pH 7) it was 79.2 nM. Besides, the Ki in assay [5] came to 33.1 nM.

`OCC1C(O)C(O)C(O)c2nc(CCc3ccccc3)cn21` (centres undefined) [5-(hydroxymethyl)-2-(2-phenylethyl)-5H,6H,7H,8H-imidazo[1,2-a]pyridine-6,7,8-triol (Compound 2)]: the concentration for half-maximal inhibition (IC50) in assay [1] came to 570 nM; in assay [2] it was 16100 nM; in assay [3], 190 nM; in assay [4], 58 nM; in assay [6] (pH 5.2), 3.71 nM; in assay [6] (pH 7), 2.04 nM. In assay [5], this molecule came in with a Ki of 3.19 nM.
